Experimental findings from patent US9359308B2, “Pyrazine kinase inhibitors” (Portola Pharmaceuticals, Inc., priority 2011, dated 2016) are described below.

A value given as a limit tells only on which side of the number the result lay.

The assay concerns the target T1, full length active recombinant SYK enzyme (Homo sapiens, UniProt P43405).
T1 construct: full length active recombinant SYK enzyme (Millipore, Calif.); purchased Millipore
The experiment in a line: Inhibition of Syk tyrosine phosphorylation activity (LANCE TR-FRET kinase assay). To be noted: activity in the Syk assays, class symbols. It counts as biochemical. Summed up:
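IC50 was derived by non-linear regression of TR-FRET signal (Eu-W1024-PY100 donor, streptavidin-APC acceptor) read 1 h after EDTA quench. The kinase step ran 1 h at room temperature with 1 nM full-length SYK, 550 nM biotinylated DEEDYESP substrate and 100 μM ATP in Tris pH 7.5/MgCl2/DTT at 3% final DMSO.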
For orientation: Time-resolved FRET reads energy transfer from a long-lived donor to a nearby acceptor.

As to `CC(C)[C@@H](Nc1cnc(C(N)=O)c(Nc2cncc(Cl)c2)n1)C(N)=O` [Example 222, (R)-5-(1-amino-3-methyl-1-oxobutan-2-ylamino)-3-(5-chloropyridin-3-ylamino)pyrazine-2-carboxamide], the half-inhibitory concentration (IC50) (commonly the point on the concentration scale where inhibition reaches its midpoint) fell in the range of 10 to 100 nM.

As for `COc1cc(Nc2nc(N[C@H]3CCCC[C@@H]3N)cnc2C(N)=O)cc(OC)c1` [Example 93, 5-(((1S,2S)-2-aminocyclohexyl)amino)-3-((3,5-dimethoxyphenyl)amino)pyrazine-2-carboxamide], the IC50 lay in the range of 1 to 10 nM.

Regarding `CC[C@@H](Nc1cnc(C(N)=O)c(Nc2cnc3ccncc3c2)n1)C(N)=O` [Example 381, (R)-3-(1,6-naphthyridin-3-ylamino)-5-(1-amino-1-oxobutan-2-ylamino)pyrazine-2-carboxamide], the IC50 is 1 to 10 nM.

As for `NC(=O)c1ncc(N[C@@H]2CCCC[C@@H]2N)nc1Nc1ccnc(F)c1` [Example 263, 5-((1R,2S)-2-aminocyclohexylamino)-3-(2-fluoropyridin-4-ylamino)pyrazine-2-carboxamide], the half-inhibitory concentration (IC50) was 1 to 10 nM.

With `NC(=O)c1ncc(N[C@@H]2CCCC[C@@H]2N)nc1Nc1cccc(C(=O)N2CCCC2)c1` [Example 287, 5-((1R,2S)-2-aminocyclohexylamino)-3-(3-(pyrrolidine-1-carbonyl)phenylamino)pyrazine-2-carboxamide], the IC50 was in the range of 10 to 100 nM.

For `CC(=O)N(C)c1ccc(Nc2nc(N[C@@H](C(N)=O)C(C)C)cnc2C(N)=O)cc1` [Example 157, (R)-5-(1-amino-3-methyl-1-oxobutan-2-ylamino)-3-(4-(N-methylacetamido)phenylamino)pyrazine-2-carboxamide], the IC50 is 100 to 1000 nM.

Consider `NC(=O)c1ncc(N[C@@H]2CCNC2)nc1Nc1cncc(F)c1` [Example 115, (R)-3-((5-fluoropyridin-3-yl)amino)-5-(pyrrolidin-3-ylamino)pyrazine-2-carboxamide], for which the IC50 is 100 to 1000 nM.

For the molecule `Cc1cc(Nc2nc(N[C@@H]3CCCC[C@@H]3N)cnc2C(N)=O)sn1` [Example 328, 5-((1R,2S)-2-aminocyclohexylamino)-3-(3-methylisothiazol-5-ylamino)pyrazine-2-carboxamide], the half-inhibitory concentration (IC50) is below 1 nM.

`CS(=O)(=O)Cc1ccc(Nc2nc(N[C@@H]3CCCC[C@@H]3N)cnc2C(N)=O)cc1` [Example 145, 5-((1R,2S)-2-aminocyclohexylamino)-3-(4-(methylsulfonylmethyl)phenylamino)pyrazine-2-carboxamide]: the concentration for half-maximal inhibition (IC50) was 10 to 100 nM.

`Cc1cc(Nc2nc(N[C@H]3CN[C@@H](CO)C3)cnc2C(N)=O)sn1` [Example 139, 5-(((3R,5R)-5-(hydroxymethyl)pyrrolidin-3-yl)amino)-3-((3-methylisothiazol-5-yl)amino)pyrazine-2-carboxamide]: the concentration for half-maximal inhibition (IC50) was 10 to 100 nM.

Regarding `CCc1cc(Nc2nc(N[C@@H]3CCCC(F)(F)[C@@H]3N)cnc2C(N)=O)sn1` [Example 226, 5-((1R,2R)-2-amino-3,3-difluorocyclohexylamino)-3-(3-ethylisothiazol-5-ylamino)pyrazine-2-carboxamide], the half-maximal inhibitory concentration (IC50) was 10 to 100 nM.

As to `CC[C@@H](Nc1cnc(C(N)=O)c(Nc2csc3ncccc23)n1)C(N)=O` [Example 75, (R)-5-(1-amino-1-oxobutan-2-ylamino)-3-(thieno[2,3-b]pyridin-3-ylamino)pyrazine-2-carboxamide], the concentration for half-maximal inhibition (IC50) fell in the range of 1 to 10 nM.

For the molecule `NC(=O)c1ncc(N[C@@H]2CCCC(F)(F)[C@@H]2N)nc1Nc1ccc2c(c1)CCC(=O)N2` [Example 25, 5-((1R,2R)-2-amino-3,3-difluorocyclohexylamino)-3-(2-oxo-1,2,3,4-tetrahydroquinolin-6-ylamino)pyrazine-2-carboxamide], the half-inhibitory concentration (IC50) was in the range of 1 to 10 nM.

Turning to `CN1C(=O)COc2ccc(Nc3nc(N[C@@H]4CCCC[C@@H]4N)cnc3C(N)=O)cc21` [Example 207, 5-((1R,2S)-2-aminocyclohexylamino)-3-(4-methyl-3-oxo-3,4-dihydro-2H-benzo[b][1,4]oxazin-6-ylamino)pyrazine-2-carboxamide], the IC50 lay within 1 to 10 nM.
